Test results from patent US10597388B2, “Pyridazinone herbicides” (FMC CORPORATION, priority 2014, dated 2020).

Columns and labels:
Test in all cases: Test E greenhouse herbicide test, pre- and postemergence
Format in all cases: in vivo
[1] = system: goosegrass (Eleusine indica); settings: Preemergence
Description: (§1) Seeds of plant species selected from corn (Zea mays), soybean (Glycine max), velvetleaf (Abutilon theophrasti), lambsquarters (Chenopodium album), wild poinsettia (Euphorbia heterophylla), pigweed, palmer (palmer pigweed, Amaranthus palmeri), waterhemp (common waterhemp, Amaranthus rudis), surinam grass (Brachiaria decumbens), crabgrass, large (large crabgrass, Digitaria sanguinalis), crabgrass, Brazilian (Brazilian crabgrass, Digitaria horizontalis), panicum, fall (fall panicum, Panicum dichotomiflorum), foxtail, giant (giant foxtail, Setaria faberii), foxtail, green (green foxtail, Setaria viridis), goosegrass (Eleusine indica), johnsongrass (Sorghum halepense), ragweed (common ragweed, Ambrosia elatior), barnyardgrass (Echinochloa crus-galli), sandbur (southem sandbur, Cenchrus echinatus), arrowleaf sida (Sida rhombifolia), Italian ryegrass (Lolium multiflorum), dayflower (Virginia (VA) dayflower, Commelina virginica), field bindweed (Convolvulus arvensis), momingglory (Ipomoea coccinea), nightshade (eastern black nightshade, Solanum ptycanthum), kochia (Kochia scoparia), nutsedge, yellow (yellow nutsedge, Cyperus esculentus), horseweed (Conyza canadensis), and beggarticks (hairy beggarticks, Bidens pilosa), were planted into a silt loam soil and treated preemergence with test chemicals formulated in a non-phytotoxic solvent mixture which included a surfactant.
(§2) At the same time, plants from these crop and weed species and also waterhemp_RES1, (ALS & Triazine resistant common waterhemp, Amaranthus rudis), and waterhemp_RES2, (ALS & HPPD resistant common waterhemp, Amaranthus rudis) were planted in pots containing Redi-Earth® planting medium (Scotts Company, 14111 Scottslawn Road, Marysville, Ohio 43041) comprising spaghnum peat moss, vermiculite, wetting agent and starter nutrients were treated with postemergence applications of test chemicals formulated in the same manner. Plants ranged in height from 2 to 18 cm for postemergence treatments (1- to 4-leaf stage). Treated plants and controls were maintained in a greenhouse for 14 to 21 d, after which time all species were compared to controls and visually evaluated. Plant response ratings, summarized in Table E, are based on a scale of 0 to 100 where 0 is no effect and 100 is complete control. A dash (-) response means no test result.

[2] = system: surinam grass (Brachiaria decumbens); settings: Preemergence
Description: as §1, §2

corn (Zea mays) = system: corn (Zea mays)
Description: as §1, §2

[3] = system: momingglory (Ipomoea coccinea); settings: Preemergence
Description: as §1, §2

[4] = system: pigweed, palmer (palmer pigweed, Amaranthus palmeri)
Description: as §1, §2

[5] = system: nightshade (eastern black nightshade, Solanum ptycanthum); settings: Preemergence
Description: as §1, §2

[6] = system: crabgrass, Brazilian (Brazilian crabgrass, Digitaria horizontalis)
Description: as §1, §2

[7] = system: arrowleaf sida (Sida rhombifolia)
Description: as §1, §2

[8] = system: dayflower (Virginia (VA) dayflower, Commelina virginica)
Description: as §1, §2

[9] = system: velvetleaf (Abutilon theophrasti); settings: Preemergence
Description: as §1, §2

[10] = system: foxtail, giant (giant foxtail, Setaria faberii); settings: Preemergence
Description: as §1, §2

[11] = system: crabgrass, large (large crabgrass, Digitaria sanguinalis); settings: Preemergence
Description: as §1, §2

[12] = system: field bindweed (Convolvulus arvensis)
Description: as §1, §2

[13] = system: ragweed (common ragweed, Ambrosia elatior); settings: Preemergence
Description: as §1, §2

[14] = system: johnsongrass (Sorghum halepense); settings: Preemergence
Description: as §1, §2

[15] = system: waterhemp (common waterhemp, Amaranthus rudis)
Description: as §1, §2

[16] = 62 g ai/ha, scale 0 to 100 (0 no effect, 100 complete control)
[17] = 16 g ai/ha, scale 0 to 100, 0 no effect, 100 complete control
[18] = 31 g ai/ha, scale 0 to 100, 0 no effect, 100 complete control
[19] = 125 g ai/ha, visual, scale 0 no effect to 100 complete control
[20] = 250 g ai/ha, visual, scale 0 no effect to 100 complete control
[21] = 125 g ai/ha, scale 0 to 100 (0 no effect, 100 complete control)
[22] = 62 g ai/ha, Postemergence, scale 0 to 100 (0 no effect, 100 complete control)
[23] = 62 g ai/ha, Preemergence, scale 0 to 100 (0 no effect, 100 complete control)
[24] = 125 g ai/ha, Postemergence, scale 0 to 100 (0 no effect, 100 complete control)
[25] = 250 g ai/ha, Postemergence, scale 0 to 100 (0 no effect, 100 complete control)
[26] = Postemergence, 16 g ai/ha, visual, scale 0 no effect to 100 complete control
[27] = Postemergence, 31 g ai/ha, visual, scale 0 no effect to 100 complete control
[28] = Preemergence, 16 g ai/ha, scale 0 to 100, 0 no effect, 100 complete control
[29] = Preemergence, 31 g ai/ha, scale 0 to 100, 0 no effect, 100 complete control
[30] = Preemergence, 125 g ai/ha, visual, scale 0 no effect to 100 complete control
[31] = Preemergence, 250 g ai/ha, visual, scale 0 no effect to 100 complete control
[32] = 125 g ai/ha, Preemergence, scale 0 to 100 (0 no effect, 100 complete control)

For `Cc1ccc2sc(C)c(-c3c(O)c(C)nn(C)c3=O)c2c1` [Compound 1, 4-(2,5-dimethylbenzo[b]thien-3-yl)-5-hydroxy-2,6-dimethyl-3(2H)-pyridazinone], the “Plant response rating, Goosegrass” value [1, 16] was 5, the “Plant response rating, Goosegrass” value [1, 17] was 0 and the “Plant response rating, Goosegrass” value [1, 18] was 15. For the same compound, the “Plant response rating, Goosegrass” value [1, 19] was 35, the “Plant response rating, Goosegrass” value [1, 20] was 25 and the “Plant response rating, Surinam Grass” value [2, 16] was 50. The “Plant response rating, Surinam Grass” value [2, 21] was 80, the “Plant response rating, Surinam Grass” value [2, 17] was 0 and the “Plant response rating, Surinam Grass” value [2, 18] was 25. The “Plant response rating, Surinam Grass” value [2, 20] was 75, the “Plant response rating, Corn” value (corn (Zea mays); [22]) was 5 and the “Plant response rating, Corn” value (corn (Zea mays); [23]) was 0. The “Plant response rating, Corn” value (corn (Zea mays); [24]) was 5, the “Plant response rating, Corn” value (corn (Zea mays); [25]) was 5 and the “Plant response rating, Corn” value (corn (Zea mays); [26]) was 0. For the same compound, the “Plant response rating, Corn” value (corn (Zea mays); [27]) was 5, the “Plant response rating, Corn” value (corn (Zea mays); [28]) was 0 and the “Plant response rating, Corn” value (corn (Zea mays); [29]) was 0. For the same compound, the “Plant response rating, Corn” value (corn (Zea mays); [30]) was 0, the “Plant response rating, Corn” value (corn (Zea mays); [31]) was 0 and the “Plant response rating, Morningglory” value [3, 16] was 98. For the same compound, the “Plant response rating, Morningglory” value [3, 21] was 90, the “Plant response rating, Morningglory” value [3, 17] was 20 and the “Plant response rating, Morningglory” value [3, 18] was 60. For the same compound, the “Plant response rating, Morningglory” value [3, 20] was 100, the “Plant response rating, Pigweed, Palmer” value [4, 22] was 90 and the “Plant response rating, Pigweed, Palmer” value [4, 23] was 100. For the same compound, the “Plant response rating, Pigweed, Palmer” value [4, 24] was 75, the “Plant response rating, Pigweed, Palmer” value [4, 32] was 100 and the “Plant response rating, Pigweed, Palmer” value [4, 25] was 98. The “Plant response rating, Pigweed, Palmer” value [4, 26] was 70, the “Plant response rating, Pigweed, Palmer” value [4, 27] was 20 and the “Plant response rating, Pigweed, Palmer” value [4, 28] was 20. The “Plant response rating, Pigweed, Palmer” value [4, 29] was 90, the “Plant response rating, Pigweed, Palmer” value [4, 31] was 100 and the “Plant response rating, Nightshade” value [5, 16] was 95. For the same compound, the “Plant response rating, Nightshade” value [5, 21] was 100, the “Plant response rating, Nightshade” value [5, 17] was 80 and the “Plant response rating, Nightshade” value [5, 18] was 90. The “Plant response rating, Nightshade” value [5, 20] was 100, the “Plant response rating, Crabgrass, Brazil” value [6, 22] was 15 and the “Plant response rating, Crabgrass, Brazil” value [6, 23] was 80. For the same compound, the “Plant response rating, Crabgrass, Brazil” value [6, 24] was 20, the “Plant response rating, Crabgrass, Brazil” value [6, 25] was 35 and the “Plant response rating, Crabgrass, Brazil” value [6, 26] was 0. The “Plant response rating, Crabgrass, Brazil” value [6, 27] was 15, the “Plant response rating, Crabgrass, Brazil” value [6, 28] was 0 and the “Plant response rating, Crabgrass, Brazil” value [6, 29] was 10. The “Plant response rating, Crabgrass, Brazil” value [6, 30] was 100, the “Plant response rating, Crabgrass, Brazil” value [6, 31] was 100 and the “Plant response rating, Arrowleaf Sida” value [7, 22] was 70. The “Plant response rating, Arrowleaf Sida” value [7, 23] was 65, the “Plant response rating, Arrowleaf Sida” value [7, 24] was 70 and the “Plant response rating, Arrowleaf Sida” value [7, 25] was 80. The “Plant response rating, Arrowleaf Sida” value [7, 26] was 30, the “Plant response rating, Arrowleaf Sida” value [7, 27] was 50 and the “Plant response rating, Arrowleaf Sida” value [7, 28] was 0. The “Plant response rating, Arrowleaf Sida” value [7, 29] was 0, the “Plant response rating, Arrowleaf Sida” value [7, 30] was 75 and the “Plant response rating, Arrowleaf Sida” value [7, 31] was 80. The “Plant response rating, Dayflower, VA” value [8, 22] was 0, the “Plant response rating, Dayflower, VA” value [8, 23] was 20 and the “Plant response rating, Dayflower, VA” value [8, 24] was 30. For the same compound, the “Plant response rating, Dayflower, VA” value [8, 25] was 50, the “Plant response rating, Dayflower, VA” value [8, 26] was 0 and the “Plant response rating, Dayflower, VA” value [8, 27] was 0. The “Plant response rating, Dayflower, VA” value [8, 28] was 0, the “Plant response rating, Dayflower, VA” value [8, 29] was 0 and the “Plant response rating, Dayflower, VA” value [8, 30] was 15. For the same compound, the “Plant response rating, Dayflower, VA” value [8, 31] was 25, the “Plant response rating, Velvetleaf” value [9, 16] was 75 and the “Plant response rating, Velvetleaf” value [9, 21] was 90. For the same compound, the “Plant response rating, Velvetleaf” value [9, 17] was 35, the “Plant response rating, Velvetleaf” value [9, 18] was 75 and the “Plant response rating, Velvetleaf” value [9, 20] was 98. The “Plant response rating, Foxtail, Giant” value [10, 16] was 35, the “Plant response rating, Foxtail, Giant” value [10, 17] was 0 and the “Plant response rating, Foxtail, Giant” value [10, 18] was 50. For the same compound, the “Plant response rating, Foxtail, Giant” value [10, 19] was 95, the “Plant response rating, Foxtail, Giant” value [10, 20] was 98 and the “Plant response rating, Crabgrass, Large” value [11, 16] was 20. The “Plant response rating, Crabgrass, Large” value [11, 17] was 0, the “Plant response rating, Crabgrass, Large” value [11, 18] was 0 and the “Plant response rating, Crabgrass, Large” value [11, 19] was 35. For the same compound, the “Plant response rating, Crabgrass, Large” value [11, 20] was 65, the “Plant response rating, Field Bindweed” value [12, 22] was 70 and the “Plant response rating, Field Bindweed” value [12, 23] was 80. For the same compound, the “Plant response rating, Field Bindweed” value [12, 24] was 85, the “Plant response rating, Field Bindweed” value [12, 25] was 95 and the “Plant response rating, Field Bindweed” value [12, 26] was 65. The “Plant response rating, Field Bindweed” value [12, 27] was 65, the “Plant response rating, Field Bindweed” value [12, 28] was 5 and the “Plant response rating, Field Bindweed” value [12, 29] was 20. The “Plant response rating, Field Bindweed” value [12, 30] was 95, the “Plant response rating, Field Bindweed” value [12, 31] was 100 and the “Plant response rating, Ragweed” value [13, 16] was 75. For the same compound, the “Plant response rating, Ragweed” value [13, 21] was 100, the “Plant response rating, Ragweed” value [13, 17] was 35 and the “Plant response rating, Ragweed” value [13, 18] was 70. For the same compound, the “Plant response rating, Ragweed” value [13, 20] was 100, the “Plant response rating, Johnsongrass” value [14, 16] was 0 and the “Plant response rating, Johnsongrass” value [14, 17] was 0. For the same compound, the “Plant response rating, Johnsongrass” value [14, 18] was 0, the “Plant response rating, Johnsongrass” value [14, 19] was 30 and the “Plant response rating, Johnsongrass” value [14, 20] was 40. The “Plant response rating, Waterhemp” value [15, 22] was 95, the “Plant response rating, Waterhemp” value [15, 23] was 100 and the “Plant response rating, Waterhemp” value [15, 24] was 98. For the same compound, the “Plant response rating, Waterhemp” value [15, 32] was 100, the “Plant response rating, Waterhemp” value [15, 25] was 100 and the “Plant response rating, Waterhemp” value [15, 26] was 70. For the same compound, the “Plant response rating, Waterhemp” value [15, 27] was 85, the “Plant response rating, Waterhemp” value [15, 28] was 35 and the “Plant response rating, Waterhemp” value [15, 29] was 90. For the same compound, the “Plant response rating, Waterhemp” value [15, 31] was 100.
